Results on 81 molecules are retold here after a flash point compilation (Sun et al. 2020).

Structures are written as SMILES.

Turning to `CC(C)CC(C)Nc1ccc(Nc2ccccc2)cc1` (stereo unspecified) [4-N-(4-methylpentan-2-yl)-1-N-phenylbenzene-1,4-diamine], the flash point was found to be 204.00 °C.
With `Nc1ccc(Nc2ccccc2)cc1` [4-N-phenylbenzene-1,4-diamine], the flash point was 193.00 °C.
For `N=C(N)c1ccc(OCCCCCOc2ccc(C(=N)N)cc2)cc1` [4-[5-(4-carbamimidoylphenoxy)pentoxy]benzenecarboximidamide] the value was 103.00 °C; for `Nc1ccc(Cc2ccc(N)c(Cl)c2)cc1Cl` [4-[(4-amino-3-chlorophenyl)methyl]-2-chloroaniline], 113.00 °C; for `CC/C(=C(/CC)c1ccc(O)cc1)c1ccc(O)cc1` [4-[(E)-4-(4-hydroxyphenyl)hex-3-en-3-yl]phenol], 104.00 °C.
As for `CN(C)c1ccc(Cc2ccc(N(C)C)cc2)cc1` [4-[[4-(dimethylamino)phenyl]methyl]-N,N-dimethylaniline], the flash point was 211.00 °C.
For `Cc1cc(Cl)ccc1N` [4-chloro-2-methylaniline] the value was 160.00 °C; for `Cc1cc(O)ccc1Cl` [4-chloro-3-methylphenol], 110.00 °C; for `Nc1ccc(Cl)cc1` [4-chloroaniline], 113.00 °C.
`C=CC1CC=CCC1` (stereo unspecified) [4-ethenylcyclohexene] came in with a flash point of 16.00 °C.
With `CCN1CCOCC1` [4-ethylmorpholine] the figure was 28.00 °C.
With `COc1cc(C=O)ccc1O` [4-hydroxy-3-methoxybenzaldehyde] the figure was 153.00 °C; with `COc1ccc(O)cc1` [4-methoxyphenol], 132.00 °C.
For `CC1COC(=O)O1` (stereo unspecified) [4-methyl-1,3-dioxolan-2-one] the value was 116.00 °C; for `Cc1ccc(N)c([N+](=O)[O-])c1` [4-methyl-2-nitroaniline], 157.00 °C.
Molecule `Cc1ccc(N)cc1[N+](=O)[O-]` [4-methyl-3-nitroaniline] gave a flash point of 157.00 °C.
For `Cc1ccc(N)cc1` [4-methylaniline] the value was 87.00 °C; for `Cc1ccc(C#N)cc1` [4-methylbenzonitrile], 85.00 °C; for `CC1CCC(O)CC1` (stereo unspecified) [4-methylcyclohexan-1-ol], 70.00 °C.
For `C=C1CC(=O)O1` [4-methylideneoxetan-2-one] the value was 34.00 °C; for `CC(=O)C=C(C)C` [4-methylpent-3-en-2-one], 23.00 °C; for `C=CC=C(C)C` [4-methylpenta-1,3-diene], -34.00 °C.
For `CC(C)CC(C)O` (stereo unspecified) [4-methylpentan-2-ol] the value was 41.00 °C; for `CC(=O)CC(C)C` [4-methylpentan-2-one], 23.00 °C; for `CCCCCCCCc1ccc(O)cc1` [4-octylphenol], 113.00 °C.
In the case of `CCc1ccc(C)nc1` [5-ethyl-2-methylpyridine], the flash point is 68.00 °C.
With `CCC1(c2ccccc2)C(=O)NC(=O)NC1=O` [5-ethyl-5-phenyl-1,3-diazinane-2,4,6-trione] the figure was 174.00 °C.
For `CC=C1CC2C=CC1C2` (stereo unspecified) [5-ethylidenebicyclo[2.2.1]hept-2-ene] the value was 26.00 °C; for `Cc1cnc[nH]1` [5-methyl-1H-imidazole], 157.00 °C; for `CC(=O)CCC(C)C` [5-methylhexan-2-one], 36.00 °C.
`C=CCc1ccc2c(c1)OCO2` [5-prop-2-enyl-1,3-benzodioxole]: the flash point stood at 98.00 °C.
With `C=C1CCC2CC1C2(C)C` (stereo unspecified) [6,6-dimethyl-2-methylidenebicyclo[3.1.1]heptane] the figure was 31.00 °C; with `CCOc1ccc2c(c1)C(C)=CC(C)(C)N2` [6-ethoxy-2,2,4-trimethyl-1H-quinoline], 107.00 °C; with `CC1=C(C(=O)Nc2ccccc2)SCCO1` [6-methyl-N-phenyl-2,3-dihydro-1,4-oxathiine-5-carboxamide], 203.00 °C.
With `Cc1ccc2oc(=O)ccc2c1` [6-methylchromen-2-one] the figure was 130.00 °C; with `CC(C)CCCCCOC(=O)COc1cc(Cl)c(Cl)cc1Cl` [6-methylheptyl 2-(2,4,5-trichlorophenoxy)acetate], 69.00 °C.
With `Cc1c2ccccc2c(C)c2c1ccc1ccccc12` [7,12-dimethylbenzo[a]anthracene] the figure was 86.00 °C.
Molecule `Cc1ccc2cccnc2c1` [7-methylquinoline] came in with a flash point of 110.00 °C.
As to `C=C(C)C(=O)OCCCCCCCC(C)C` [8-methylnonyl 2-methylprop-2-enoate], the flash point worked out at 121.00 °C.
For `Cc1cccc2cccnc12` [8-methylquinoline], the flash point came out at 105.00 °C.
`C1=C\CCCC\C=C/1` [(1Z,3Z)-cycloocta-1,3-diene]: the flash point is 35.00 °C.
The molecule `CC1(C)OCC(CO)O1` (stereo unspecified) [(2,2-dimethyl-1,3-dioxolan-4-yl)methanol] registered a flash point of 80.00 °C.
In turn, `C=CC(=O)OCC(C)(C)COC(=O)C=C` [(2,2-dimethyl-3-prop-2-enoyloxypropyl) prop-2-enoate] yielded a flash point of 115.00 °C.
In the case of `CCCCCCCC(=O)Oc1c(Br)cc(C#N)cc1Br` [(2,6-dibromo-4-cyanophenyl) octanoate], the flash point is 102.00 °C.
For `CC(C)(C)c1ccccc1OP(=O)(Oc1ccccc1)Oc1ccccc1` [(2-tert-butylphenyl) diphenyl phosphate] the value was 224.00 °C; for `C1O[C@H]1[C@H]1CO1` [(2R)-2-[(2R)-oxiran-2-yl]oxirane], 46.00 °C.
`OC[C@@H](O)[C@@H](O)[C@H](O)[C@@H](O)CO` [(2R,3R,4R,5S)-hexane-1,2,3,4,5,6-hexol]: the flash point was found to be 283.00 °C.
`CC(C)=CCC/C(C)=C\CO` [(2Z)-3,7-dimethylocta-2,6-dien-1-ol] returned a flash point of 107.00 °C.
For `CC(C)C(=O)OCC(C)(C)C(O)C(C)C` (stereo unspecified) [(3-hydroxy-2,2,4-trimethylpentyl) 2-methylpropanoate] the value was 120.00 °C; for `CN(C)C(=O)/N=N/C(=O)N(C)C` [(3E)-3-(dimethylcarbamoylimino)-1,1-dimethylurea], 40.00 °C.
In the case of `C=C/C=C/C` [(3E)-penta-1,3-diene], the flash point is -29.00 °C.
For `CC1CCC(CO)CC1` (stereo unspecified) [(4-methylcyclohexyl)methanol] the value was 112.00 °C; for `C=C(C)[C@H]1CC=C(C)CC1` [(4R)-1-methyl-4-prop-1-en-2-ylcyclohexene], 48.00 °C; for `O=C/C=C/c1ccccc1` [(E)-3-phenylprop-2-enal], 71.00 °C.
For `O=C(O)/C=C/C(=O)O` [(E)-but-2-enedioic acid] the value was 273.00 °C; for `NC(=O)/N=N/C(N)=O` [(E)-carbamoyliminourea], 96.00 °C; for `CCCCCCCC/C=C\CCCCCCCC(=O)O` [(Z)-octadec-9-enoic acid], 189.00 °C.
On to `CSSC` [(methyldisulfanyl)methane], for which the flash point worked out at 24.00 °C.
As to `C1=CCC=C1` [InChI=1S/C5H6/c1-2-4-5-3-1/h1-4H,5H2], the flash point came to 25.00 °C.
For `NCCNCCN` [N'-(2-aminoethyl)ethane-1,2-diamine] the value was 102.00 °C.
For `CNCCCN` [N'-methylpropane-1,3-diamine] the value was 36.00 °C; for `Cc1ccccc1N(C)C` [N,N,2-trimethylaniline], 83.00 °C.
With `CN(C)CCN(C)C` [N,N,N',N'-tetramethylethane-1,2-diamine] the figure was 10.00 °C; with `C=CCN(CC=C)CC=C` [N,N-bis(prop-2-enyl)prop-2-en-1-amine], 39.00 °C; with `CCCCN(CCCC)CCCC` [N,N-dibutylbutan-1-amine], 85.00 °C.
`CCN(CC)C(C)=O` [N,N-diethylacetamide] returned a flash point of 77.00 °C.
With `CCN(CC)N=O` [N,N-diethylnitrous amide] the figure was 63.00 °C; with `CN(C)Cc1ccccc1` [N,N-dimethyl-1-phenylmethanamine], 57.00 °C.
`CN(C)C1CCCCC1` [N,N-dimethylcyclohexanamine] came in with a flash point of 42.00 °C.
Turning to `CN(C)N=O` [N,N-dimethylnitrous amide], the flash point came out at 61.00 °C.
The molecule `CCCCCN(CCCCC)CCCCC` [N,N-dipentylpentan-1-amine] showed a flash point of 102.00 °C.
For `CCCN(CCC)CCC` [N,N-dipropylpropan-1-amine] the value was 37.00 °C.
Consider `CC(=O)CC(=O)Nc1ccc(C)cc1C` [N-(2,4-dimethylphenyl)-3-oxobutanamide], for which the flash point amounted to 171.00 °C.
With `CCCCOCN(C(=O)CCl)c1c(CC)cccc1CC` [N-(butoxymethyl)-2-chloro-N-(2,6-diethylphenyl)acetamide] the figure was 114.00 °C; with `CCCCN(CC)N=O` [N-butyl-N-ethylnitrous amide], 93.00 °C; with `CCCCN(C)N=O` [N-butyl-N-methylnitrous amide], 32.00 °C.
`CCCCNC1CCCCC1` [N-butylcyclohexanamine] showed a flash point of 93.00 °C.
In the case of `O=[N+]([O-])N(Cl)c1ccccc1` [N-chloro-N-phenylnitramide], the flash point stood at 205.00 °C.
With `CCNc1ccccc1` [N-ethylaniline], the flash point is 85.00 °C.
For `CCCCNCC` [N-ethylbutan-1-amine] the value was 18.00 °C; for `CCNC1CCCCC1` [N-ethylcyclohexanamine], 29.00 °C.
